Converted amounts (≈) assume the structure as drawn.
What was measured:
[1] = tested on: Escherichia coli ATCC25922; assay: Minimum Inhibitory Concentration Test (Nutrition Broth Method), Table 3; type: cell-based
Method: (§1) Anti-bacterial tests and c log P theoretical calculation are performed on the products of the embodiment 2 and the embodiment 3, as shown in Table 3. [table]

[2] = tested on: Escherichia coli ATCC25922; assay: Minimum inhibitory concentration MIC (agar method), Table 3; type: cell-based
Method: as §1

S. aureus = settings: disclosed in CN110452115A; cited from earlier work
K. pneumoniae = settings: disclosed in CN110452115A; cited from earlier work
C. albicans = settings: disclosed in CN110452115A; cited from earlier work
[3] = tested on: Escherichia coli ATCC 25922; assay: Anti-bacterial experiment, GB/T 20944.3-2008 shake flask method; type: cell-based
Method: Adding 10 g of 3-hydroxybutyrate ethyl ester and 0.01 g of zinc acetate (i.e. a mass ratio of 3-hydroxybutyrate ethyl ester is 0.1%) in a three-necked flask with mechanical stirring, a thermometer and a distillation device, wherein a stirring speed is approximately 150 revolutions; under an environment with a trace of nitrogen, increasing a temperature to 150° C. with a speed of 0.5-3° C./min to react for 1 hour, then stopping reaction to obtain a 3-HB oligomer; detecting a degree of polymerization by a mass spectrometry, wherein an anti-bacterial experiment refers to GB/T 20944.3-2008 Textiles-Evaluation for anti-bacterial activity-Part 3: Shake flask method, a strain used is Escherichia coli ATCC 25922.

| Molecule | MIC [1] | Minimum inhibitory concentration MIC (agar method) [2] | also measured |
| --- | --- | --- | --- |
| CCCCCOC(=O)C[C@@H](C)O [Embodiment 2-5, R-(−)-3-hydroxybutyrate pentyl ester] | 3.91 µg/mL (≈ 22.4 µM) | 0.5% |  |
| CCCCCCOC(=O)[C@@H](C)O [Embodiment 3-1, R-(−)-lactate hexyl ester] | 1.95 µg/mL (≈ 11.2 µM) | 0.25% |  |
| poly-3-hydroxybutyrate oligomer |  |  | minimum inhibitory concentration (MIC) (S. aureus): 6250 µg/mL; minimum inhibitory concentration (MIC) (K. pneumoniae): 12500 µg/mL; minimum inhibitory concentration (MIC) (C. albicans): 25000 µg/mL |
| R-(−)-3-hydroxybutyrate ethyl ester oligomer [Embodiment 1-3] |  |  | Anti-bacterial rate (%) [3]: 99% |
| CCCCCCOC(=O)C[C@@H](C)O [Embodiment 2-6, R-(−)-3-hydroxybutyrate hexyl ester] | 1.95 µg/mL (≈ 10.4 µM) | 0.25% |  |
| CCCCCCCOC(=O)C[C@@H](C)O [Embodiment 2-7, R-(−)-3-hydroxybutyrate heptyl ester] | 31.2 µg/mL (≈ 154 µM) | >15% |  |
| CCCCOC(=O)C[C@@H](C)O [Embodiment 2-4, R-(−)-3-hydroxybutyrate butyl ester] | 7.81 µg/mL (≈ 48.7 µM) | 1% |  |
| CCOC(=O)C[C@@H](C)O [Embodiment 2-2, R-(−)-3-hydroxybutyrate ethyl ester] | 31.2 µg/mL (≈ 236 µM) | 5% |  |
| CCCOC(=O)C[C@@H](C)O [Embodiment 2-3, R-(−)-3-hydroxybutyrate propyl ester] | 15.6 µg/mL (≈ 107 µM) | 2% |  |
| CCCCCCCCOC(=O)C[C@@H](C)O [Embodiment 2-8, R-(−)-3-hydroxybutyrate octyl ester] | 31.2 µg/mL (≈ 144 µM) | >20% |  |
| COC(=O)C[C@@H](C)O [Embodiment 2-1, R-(−)-3-hydroxybutyric methyl ester] | 62.5 µg/mL (≈ 529 µM) | 10% |  |
| CCOC(=O)[C@@H](C)O [Embodiment 3-2, R-(−)-lactate ethyl ester] | 35.5 µg/mL (≈ 301 µM) | 5.25% |  |
| CCCCCCCOC(=O)[C@@H](C)O [Embodiment 3-3, R-(−)-lactate heptyl ester] | 28.6 µg/mL (≈ 152 µM) | 4.38% |  |

Reference: patent publication US12350249B2, “Efficient anti-bacterial hydroxy acid ester oligomer” (NANJING BIOSERICA ERA BIOLOGICAL TECHNOLOGY CO., LTD., priority 2020, dated 2025)
